Columns and labels:
[1] = molecular target: T1, AXL (Homo sapiens, UniProt P30530); assay: TR-FRET kinase activity assay, AXL; assay type: biochemical; settings: ATP at Km, 60 minutes
T1 sequence (P30530 26-894): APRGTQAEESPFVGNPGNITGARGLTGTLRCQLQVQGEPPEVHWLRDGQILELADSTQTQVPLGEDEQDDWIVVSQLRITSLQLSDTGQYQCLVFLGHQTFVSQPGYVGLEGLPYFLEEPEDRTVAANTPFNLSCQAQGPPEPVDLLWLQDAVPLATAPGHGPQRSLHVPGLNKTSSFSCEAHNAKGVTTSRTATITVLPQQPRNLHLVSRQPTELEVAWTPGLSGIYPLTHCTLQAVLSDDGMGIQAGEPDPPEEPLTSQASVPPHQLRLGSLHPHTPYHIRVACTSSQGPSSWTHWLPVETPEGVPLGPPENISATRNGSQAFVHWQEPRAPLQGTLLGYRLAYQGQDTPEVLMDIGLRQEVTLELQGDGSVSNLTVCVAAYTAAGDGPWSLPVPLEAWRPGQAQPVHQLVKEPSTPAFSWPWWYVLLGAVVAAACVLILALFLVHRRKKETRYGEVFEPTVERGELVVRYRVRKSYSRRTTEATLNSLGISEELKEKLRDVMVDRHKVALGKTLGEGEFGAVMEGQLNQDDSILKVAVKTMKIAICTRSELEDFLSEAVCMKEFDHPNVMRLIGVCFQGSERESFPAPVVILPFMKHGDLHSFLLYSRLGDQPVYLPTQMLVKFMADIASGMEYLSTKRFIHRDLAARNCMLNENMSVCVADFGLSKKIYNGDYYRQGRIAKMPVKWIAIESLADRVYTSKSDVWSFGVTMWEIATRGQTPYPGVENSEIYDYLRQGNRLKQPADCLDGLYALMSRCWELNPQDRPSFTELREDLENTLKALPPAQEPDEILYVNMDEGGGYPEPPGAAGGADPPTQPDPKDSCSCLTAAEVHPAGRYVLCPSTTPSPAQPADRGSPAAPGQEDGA
How it was run: (§1)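 Enzyme, fluorescent-labeled peptide substrate and compound were mixed in 50 mM HEPES pH 7.5, 10 mM MgCl2, 1 mM EGTA, 0.01% Brij 35, 1 mM DTT at RT; ATP at each enzyme's Km started the reaction. After 60 min, EDTA quench and Eu-anti-phosphotyrosine-site antibody (30 min, dark); TR-FRET read, IC50 derived.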

[2] = molecular target: T2, FLT3 (Homo sapiens, UniProt P36888); assay: TR-FRET kinase activity assay, FLT3; assay type: biochemical; settings: ATP at Km, 60 minutes
T2 sequence (P36888 27-993): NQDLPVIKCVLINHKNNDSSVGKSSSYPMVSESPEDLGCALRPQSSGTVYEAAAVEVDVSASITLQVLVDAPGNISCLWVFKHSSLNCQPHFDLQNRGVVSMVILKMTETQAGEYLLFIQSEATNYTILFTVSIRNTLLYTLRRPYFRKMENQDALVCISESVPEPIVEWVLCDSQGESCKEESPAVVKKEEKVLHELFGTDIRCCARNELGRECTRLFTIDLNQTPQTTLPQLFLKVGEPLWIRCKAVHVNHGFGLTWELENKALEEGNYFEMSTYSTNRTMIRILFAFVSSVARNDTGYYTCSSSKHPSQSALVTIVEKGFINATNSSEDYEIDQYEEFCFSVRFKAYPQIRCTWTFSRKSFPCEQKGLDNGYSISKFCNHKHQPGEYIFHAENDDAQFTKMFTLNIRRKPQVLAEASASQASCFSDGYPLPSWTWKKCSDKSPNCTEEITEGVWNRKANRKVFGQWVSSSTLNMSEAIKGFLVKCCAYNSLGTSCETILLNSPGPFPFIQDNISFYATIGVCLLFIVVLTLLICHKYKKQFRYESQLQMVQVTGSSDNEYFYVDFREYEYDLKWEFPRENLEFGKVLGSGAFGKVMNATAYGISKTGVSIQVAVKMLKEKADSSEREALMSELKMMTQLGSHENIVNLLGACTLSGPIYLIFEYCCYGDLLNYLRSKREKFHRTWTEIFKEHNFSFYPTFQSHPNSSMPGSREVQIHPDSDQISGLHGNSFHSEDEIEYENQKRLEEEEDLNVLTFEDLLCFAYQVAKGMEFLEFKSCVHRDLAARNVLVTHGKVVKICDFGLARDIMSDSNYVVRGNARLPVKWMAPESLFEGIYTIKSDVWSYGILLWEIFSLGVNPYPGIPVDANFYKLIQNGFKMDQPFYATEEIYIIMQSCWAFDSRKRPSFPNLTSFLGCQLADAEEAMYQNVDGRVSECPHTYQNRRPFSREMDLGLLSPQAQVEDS
How it was run: as §1

Structure (SMILES)	IC50 [1] [µM]	IC50 [2] [µM]
CCCC(C)Nc1ncc2c(=O)n(C3CCNCC3)cc([C@H]3CC[C@H](O)CC3)c2n1 (stereo partly drawn) [Compound 112]	0.1 to 1	1 to 10
CCCCNc1cc2c(cn1)c(=O)n(C1CCN(C)CC1)cc2[C@H]1CC[C@H](O)CC1 [Compound 116]	0.1 to 1	0.1 to 1
CCCC(C)Nc1ncc2c(=O)n(C3CCN(C)CC3)cc([C@H]3CC[C@H](O)CC3)c2n1 (stereo partly drawn) [Compound 117]	0.1 to 1	1 to 10
CC(C)CC(C)Nc1ncc2c(=O)n(C3CCNCC3)cc([C@H]3CC[C@H](O)CC3)c2n1 (stereo partly drawn) [Compound 119]	0.1 to 1	1 to 10
CS(=O)(=O)N1CC[C@H](Nc2ncc3c(OC4CCOCC4)ncc([C@H]4CC[C@H](O)CC4)c3n2)C1 [Compound 278]	1 to 10	1 to 10
COC[C@H](C)Nc1ncc2c(OC3CCOCC3)ncc(-c3ccc(N4CCN(C)CC4)cc3)c2n1 [Compound 279]	1 to 10	1 to 10
COC[C@H](C)Nc1ncc2c(OC3CCOCC3)ncc(-c3ccc(C4CCN(C)CC4)cc3)c2n1 [Compound 280]	0.1 to 1	1 to 10
CCOC[C@H](C)Nc1ncc2c(OC3CCOCC3)ncc([C@H]3CC[C@H](O)CC3)c2n1 [Compound 281]	1 to 10	1 to 10
CN1CC(Nc2ncc3c(OC4CCOCC4)ncc([C@H]4CC[C@H](O)CC4)c3n2)CC1=O (stereo partly drawn) [Compound 282]	1 to 10	1 to 10
O=C(O)c1ccc(Nc2ncc3c(OC4CCNCC4)ncc([C@H]4CC[C@H](O)CC4)c3n2)cc1 [Compound 283]	≤ 0.1	0.1 to 1
C[C@@H](CCO)Nc1ncc2c(OC3CCOCC3)ncc([C@H]3CC[C@H](O)CC3)c2n1 [Compound 284]	1 to 10	1 to 10
COC[C@H](C)Nc1cc2c(cn1)c(OC1CCOCC1)ncc2[C@H]1CC[C@H](O)CC1 [Compound 285]	1 to 10	1 to 10
O[C@H]1CC[C@H](c2cnc(OC3CCOCC3)c3cnc(NCCC(F)(F)F)nc32)CC1 [Compound 286]	0.1 to 1	≤ 0.1
CC[C@H](C)Nc1ncc2c(O[C@H]3CC[C@](C)(O)CC3)ncc([C@H]3CC[C@H](O)CC3)c2n1 [Compound 287]	0.1 to 1	0.1 to 1
CC(C)Nc1ncc2c(OC3CCOCC3)ncc(-c3cccc(S(=O)(=O)N(C)C)c3)c2n1 [Compound 288]	0.1 to 1	0.1 to 1
COC[C@H](C)Nc1ncc2c(OC3CCN(S(C)(=O)=O)CC3)ncc([C@H]3CC[C@H](O)CC3)c2n1 [Compound 289]	0.1 to 1	1 to 10
CC[C@H](C)Nc1ncc2c(=O)n([C@H]3CC[C@H](N)CC3)cc([C@H]3CC[C@H](O)CC3)c2n1 [Compound 290]	0.1 to 1	1 to 10
CC1(Nc2ncc3c(OC4CCNCC4)ncc([C@H]4CC[C@H](O)CC4)c3n2)CC1 [Compound 291]	0.1 to 1	1 to 10
C[C@@H](CC#N)Nc1ncc2c(OC3CCOCC3)ncc([C@H]3CC[C@H](O)CC3)c2n1 [Compound 292]	0.1 to 1	1 to 10
COC[C@H](C)Nc1ncc2c(OC3CCOCC3)ncc([C@H]3CC[C@](C)(O)CC3)c2n1 [Compound 293]	0.1 to 1	1 to 10
COC[C@H](C)Nc1ncc2c(OC3CCOCC3)ncc([C@H]3CC[C@@](C)(O)CC3)c2n1 [Compound 294]	1 to 10	1 to 10

Structure (SMILES)	IC50 [1] [µM]	IC50 [2] [µM]
COC[C@H](C)Nc1ncc2c(O[C@H]3C[C@H](O)C3)ncc([C@H]3CC[C@H](O)CC3)c2n1 [Compound 295]	0.1 to 1	1 to 10
COC[C@H](C)Nc1ncc2c(O[C@H]3C[C@@H](O)C3)ncc([C@H]3CC[C@H](O)CC3)c2n1 [Compound 296]	0.1 to 1	1 to 10
CNC(=O)Nc1ccc(-c2cnc(OC3CCOCC3)c3cnc(N[C@@H](C)COC)nc23)cc1 [Compound 297]	1 to 10	1 to 10
CC[C@H](C)Nc1ncc2c(O[C@H]3CC[C@@H](N(C)C)C3)ncc([C@H]3CC[C@H](O)CC3)c2n1 [Compound 298]	0.1 to 1	1 to 10
O[C@H]1CC[C@H](c2cnc(OC3CCNCC3)c3cnc(Nc4ccc(Cl)c(Cl)c4)nc32)CC1 [Compound 299]	≤ 0.1	≤ 0.1
CCc1cc(Nc2ncc3c(OC4CCNCC4)ncc([C@H]4CC[C@H](O)CC4)c3n2)ccc1Cl [Compound 300]	≤ 0.1	0.1 to 1
COC[C@H](C)Nc1ncc2c(OC3CCOCC3)ncc(-c3ccc(O)cc3)c2n1 [Compound 301]	1 to 10	1 to 10
COC[C@H](C)Nc1ncc2c(O[C@H]3CCNCC3(F)F)ncc([C@H]3CC[C@H](O)CC3)c2n1 [Compound 302]	1 to 10	1 to 10
COC[C@H](C)Nc1ncc2c(C)ncc([C@H]3CC[C@H](O)CC3)c2n1 [Compound 303]	0.1 to 1	1 to 10
C[C@@H](CF)Nc1ncc2c(OC3CCOCC3)ncc([C@H]3CC[C@H](O)CC3)c2n1 [Compound 304]	0.1 to 1	1 to 10
C[C@@H](CC(F)(F)F)Nc1ncc2c(OC3CCOCC3)ncc([C@H]3CC[C@H](O)CC3)c2n1 [Compound 305]	0.1 to 1	0.1 to 1
CC[C@H](C)Nc1ncc2c(OC3CCN(c4ncccn4)CC3)ncc([C@H]3CC[C@H](O)CC3)c2n1 [Compound 306]	0.1 to 1	1 to 10
COC[C@H](C)Nc1ncc2c(OC3CCOCC3)ncc(-c3cccc(S(=O)(=O)N(C)C)c3)c2n1 [Compound 307, (S)-3-(2-((1-methoxypropan-2-yl)amino)-5-((tetrahydro-2H-pyran-4-yl)oxy)pyrido[4,3-d]pyrimidin-8-yl)-N,N-dimethylbenzenesulfonamide]	1 to 10	1 to 10
COC[C@H](C)Nc1ncc2c(O[C@@H]3CCNCC3(F)F)ncc([C@H]3CC[C@H](O)CC3)c2n1 [Compound 308]	1 to 10	1 to 10
COC[C@H](C)Nc1ncc2c(OC3CCOCC3)ncc(-c3ccc(N)cc3)c2n1 [Compound 309]	1 to 10	1 to 10
COCCN1C(C)(C)CC(Oc2ncc([C@H]3CC[C@H](O)CC3)c3nc(N[C@@H](C)COC)ncc23)CC1(C)C [Compound 310]	≤ 0.1	1 to 10
C[C@@H](CCF)Nc1ncc2c(OC3CCOCC3)ncc([C@H]3CC[C@H](O)CC3)c2n1 [Compound 311]	0.1 to 1	1 to 10
COCC[C@H](C)Nc1ncc2c(OC3CCOCC3)ncc([C@H]3CC[C@H](O)CC3)c2n1 [Compound 312]	1 to 10	1 to 10
CC(C)Nc1ncc2c(OC3CCOCC3)ncc(-c3cccc(S(C)(=O)=O)c3)c2n1 [Compound 313]	0.1 to 1	1 to 10
COC[C@H](C)Nc1ncc2c(OC3CCOCC3)ncc(-c3cnn([C@@H]4CCN(C)C4)c3)c2n1 [Compound 314]	1 to 10	1 to 10
COC[C@H](C)Nc1ncc2c(OC3CCOCC3)ncc([C@H]3CC[C@H](NC(C)=O)CC3)c2n1 [Compound 315]	1 to 10	1 to 10

— patent publication US20200291018A1, “TAM KINASE INHIBITORS” (SYROS PHARMACEUTICALS, INC., priority 2017, published 2020)
